Measurements taken from publication PMC7377239, “Cardiovascular Effects of Polychlorinated Biphenyls and Their Major Metabolites” (Environmental Health Perspectives, 2020).
Like-named read-outs stand apart in the source and are kept apart here.

Test system: iCell cardiomyocytes (human iPSC-derived cardiomyocytes)
Test: High-content imaging of cytotoxicity and mitochondrial integrity in iPSC-CMs
Assay type: cell-based
Details: Homo sapiens, Cardiomyocyte; for viability at 0.01 µM / activity at 0.01 µM / viability at 0.1 µM / activity at 0.1 µM / viability at 1 µM / activity at 1 µM / viability at 10 µM / activity at 10 µM / viability at 100 µM / activity at 100 µM: 0.00 µM = 100.00; for viability at 0.1 µM / activity at 0.1 µM: 0.10 µM
How it was run: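 Human iPSC-derived cardiomyocytes were seeded on gelatin-coated 384-well plates at 5,000 cells per well and maintained for 12 d. Test chemicals were added as 10μL of 5× solutions to final concentrations of 0.01 to 100μM. Cells were stained with Hoechst 33342 and MitoTracker™ Orange, fixed in formaldehyde, and imaged by confocal high-content microscopy at 10× magnification.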

[1] = 1.5 h, 90min, read-out: cm.cam.90min
[2] = 1.5 h, 90min, read-out: cm.mii.90min
[3] = 1.5 h, 90min, read-out: cm.mito.90min
[4] = 1.5 h, 90min, read-out: cm.tc.90min
[5] = 24 h, 24hrs, read-out: cm.cam.24hrs
[6] = 24 h, 24hrs, read-out: cm.mii.24hrs
[7] = 24 h, 24hrs, read-out: cm.mito.24hrs
[8] = 24 h, 24hrs, read-out: cm.tc.24hrs
[9] = 1.5 h, cardiomyocytes (cm), cam, 90 min, read-out: POD cm.cam.90min
[10] = 1.5 h, cardiomyocytes (cm), mii, 90 min, read-out: POD cm.mii.90min
[11] = 1.5 h, cardiomyocytes (cm), mito, 90 min, read-out: POD cm.mito.90min
[12] = 1.5 h, cardiomyocytes (cm), tc, 90 min, read-out: POD cm.tc.90min
[13] = 24 h, cardiomyocytes (cm), cam, 24 hrs, read-out: POD cm.cam.24hrs
[14] = 24 h, cardiomyocytes (cm), mii, 24 hrs, read-out: POD cm.mii.24hrs
[15] = 24 h, cardiomyocytes (cm), mito, 24 hrs, read-out: POD cm.mito.24hrs
[16] = 24 h, cardiomyocytes (cm), tc, 24 hrs, read-out: POD cm.tc.24hrs

Work on `Oc1cc(Cl)c(-c2cc(Cl)ccc2Cl)cc1Cl` [4-OH PCB52] yielded a viability at 0.01 µM [1] of 89.4%, an activity at 0.01 µM [2] of 103% and an activity at 0.01 µM [3] of 87.5%. For the same compound, the viability at 0.01 µM [4] was 89.4%, the viability at 0.1 µM [1] was 103% and the activity at 0.1 µM [2] was 101%. For the same compound, the activity at 0.1 µM [3] was 103%, the viability at 0.1 µM [4] was 104% and the viability at 1 µM [1] was 97.9%. The activity at 1 µM [2] was 97.3%, the activity at 1 µM [3] was 97.9% and the viability at 1 µM [4] was 98.1%. It also gave a viability at 10 µM [1] of 95.1%, an activity at 10 µM [2] of 116% and an activity at 10 µM [3] of 94.7%. For the same compound, the viability at 10 µM [4] was 94.9%, the viability at 100 µM [1] was 0% and the activity at 100 µM [2] was 7.54%. The activity at 100 µM [3] was 0.0231%, the viability at 100 µM [4] was 0.0461% and the minimal effective concentration (1.5 h, 90min, read-out: cm.cam.90min POD) was 8.86 µM. It also gave a minimal effective concentration (1.5 h, 90min, read-out: cm.mii.90min POD) of 45.7 µM, a minimal effective concentration (1.5 h, 90min, read-out: cm.mito.90min POD) of 8.61 µM and a minimal effective concentration (1.5 h, 90min, read-out: cm.tc.90min POD) of 8.75 µM. For the same compound, the viability at 0.01 µM [5] was 99.2%, the activity at 0.01 µM [6] was 98.8% and the activity at 0.01 µM [7] was 99.4%. The viability at 0.01 µM [8] was 99.5%, the viability at 0.1 µM [5] was 102% and the activity at 0.1 µM [6] was 93.3%. The activity at 0.1 µM [7] was 104%, the viability at 0.1 µM [8] was 103% and the viability at 1 µM [5] was 96.1%. For the same compound, the activity at 1 µM [6] was 102%, the activity at 1 µM [7] was 94.1% and the viability at 1 µM [8] was 96%. The viability at 10 µM [5] was 101%, the activity at 10 µM [6] was 88.3% and the activity at 10 µM [7] was 102%. For the same compound, the viability at 10 µM [8] was 101%, the viability at 100 µM [5] was 10.2% and the activity at 100 µM [6] was 193%. The activity at 100 µM [7] was 20.3%, the viability at 100 µM [8] was 49.7% and the minimal effective concentration (24 h, read-out: cm.cam.24hrs POD) was 32.7 µM. For the same compound, the minimal effective concentration (24 h, read-out: cm.mii.24hrs POD) was 65.1 µM, the minimal effective concentration (24 h, read-out: cm.mito.24hrs POD) was 36.7 µM and the minimal effective concentration (24 h, read-out: cm.tc.24hrs POD) was 41.4 µM.
Work on `Oc1ccc(-c2cccc(Cl)c2)cc1Cl` [4-OH-PCB 11] yielded a minimal effective concentration [9] of 27.7 µM, a minimal effective concentration [10] of 32.7 µM and a minimal effective concentration [11] of 40.1 µM. The minimal effective concentration [12] was 36.2 µM, the minimal effective concentration [13] was 8.57 µM and the minimal effective concentration [14] was 43.2 µM. It also gave a minimal effective concentration [15] of 7.94 µM and a minimal effective concentration [16] of 8.62 µM.
`Oc1cc(Cl)c(-c2cc(Cl)ccc2Cl)cc1Cl` [4-OH-PCB 52] showed a minimal effective concentration [9] of 8.86 µM, a minimal effective concentration [10] of 45.7 µM and a minimal effective concentration [11] of 8.61 µM. For the same compound, the minimal effective concentration [12] was 8.75 µM, the minimal effective concentration [13] was 32.7 µM and the minimal effective concentration [14] was 65.1 µM. For the same compound, the minimal effective concentration [15] was 36.7 µM and the minimal effective concentration [16] was 41.4 µM.
